Key:
Assay type in all cases: functional
SNB-75 = assay: Anticancer activity against human SNB75 cells assessed as cell growth promotion at 10^-5 M after 48 hrs by SRB assay relative to control
U-251 = assay: Anticancer activity against human U251 cells assessed as cell growth promotion at 10^-5 M after 48 hrs by SRB assay relative to control
SK-MEL-2 = assay: Anticancer activity against human SK-MEL-2 cells assessed as cell growth promotion at 10^-5 M after 48 hrs by SRB assay relative to control
UACC-257 = assay: Anticancer activity against human UACC257 cells assessed as cell growth promotion at 10^-5 M after 48 hrs by SRB assay relative to control
UACC-62 = assay: Anticancer activity against human UACC62 cells assessed as cell growth promotion at 10^-5 M after 48 hrs by SRB assay relative to control
OVCAR-4 = assay: Anticancer activity against human OVCAR4 cells assessed as cell growth promotion at 10^-5 M after 48 hrs by SRB assay relative to control
OVCAR-8 = assay: Anticancer activity against human OVCAR8 cells assessed as cell growth promotion at 10^-5 M after 48 hrs by SRB assay relative to control
NCI/ADR-RES = assay: Anticancer activity against human NCI/ADR-RES cells assessed as cell growth promotion at 10^-5 M after 48 hrs by SRB assay relative to control
786-0 = assay: Anticancer activity against human 786-0 cells assessed as cell growth promotion at 10^-5 M after 48 hrs by SRB assay relative to control
PC-3 = assay: Anticancer activity against human PC3 cells assessed as cell growth promotion at 10^-5 M after 48 hrs by SRB assay relative to control
BT-549 = assay: Anticancer activity against human BT549 cells assessed as cell growth promotion at 10^-5 M after 48 hrs by SRB assay relative to control
SR = assay: Anticancer activity against human SR cells assessed as cell growth promotion at 10^-5 M after 48 hrs by SRB assay relative to control
A549 = assay: Anticancer activity against human A549 cells assessed as cell growth promotion at 10^-5 M after 48 hrs by SRB assay relative to control
HOP-62 = assay: Anticancer activity against human HOP62 cells assessed as cell growth promotion at 10^-5 M after 48 hrs by SRB assay relative to control
NCI-H226 = assay: Anticancer activity against human NCI-H226 cells assessed as cell growth promotion at 10^-5 M after 48 hrs by SRB assay relative to control
NCI-H322M = assay: Anticancer activity against human NCI-H322M cells assessed as cell growth promotion at 10^-5 M after 48 hrs by SRB assay relative to control
COLO 205 = assay: Anticancer activity against human COLO205 cells assessed as cell growth promotion at 10^-5 M after 48 hrs by SRB assay relative to control
HCT-15 = assay: Anticancer activity against human HCT15 cells assessed as cell growth promotion at 10^-5 M after 48 hrs by SRB assay relative to control
SW-620 = assay: Anticancer activity against human SW620 cells assessed as cell growth promotion at 10^-5 M after 48 hrs by SRB assay relative to control
NCI-H522 = assay: Anticancer activity against human NCI-H522 cells assessed as cell growth promotion at 10^-5 M after 48 hrs by SRB assay relative to control
[1] = Anticancer activity against human […] cells assessed as cell growth promotion at 10^-5 M after 48 hrs by SRB assay relative to control

Row | Structure (SMILES) | Activity (SNB-75) [%] | Activity (U-251) [%] | Activity (SK-MEL-2) [%] | Activity (UACC-257) [%] | Activity (UACC-62) [%] | Activity (OVCAR-4) [%] | Activity (OVCAR-8) [%] | Activity (NCI/ADR-RES) [%] | Activity (786-0) [%] | Activity (PC-3) [%] | Activity (BT-549) [%] | Activity (SR) [%] | Activity (A549) [%] | Activity (HOP-62) [%] | Activity (NCI-H226) [%] | Activity (NCI-H322M) [%] | Activity (COLO 205) [%] | Activity (HCT-15) [%] | Activity (SW-620) [%] | Activity [1] [%] | also measured
1 | O=c1c2ccccc2nc(-c2ccco2)n1O | 86.97 | 110.85 | 103.59 | 112.27 | 92.42 | 114.55 | 110.28 | 112.3 | 104.23 | 91.05 | 103.7 | 94.7 | 113.82 | 112.74 | 97.88 | 97.18 | 107.29 | 108.36 | 107.69 | – | –
2 | O=C(O)c1ccc(-n2c(-c3ccco3)nc3ccccc3c2=O)cc1 | 89.2 | 102.8 | 93.19 | 107.43 | 84.67 | 100.6 | 104.87 | 102.28 | 105.17 | 86.25 | 100.59 | 92.85 | 104.77 | 107.05 | 78.42 | 97.61 | 103.97 | 93.69 | 106.15 | – | Activity (NCI-H522): 109.67%
3 | NS(=O)(=O)c1ccc(NC(=O)c2ccccc2NC(=O)c2ccco2)cc1 | 87.71 | 99.55 | 115.3 | 100.1 | 107 | 98 | 103 | 111 | 108 | 118 | 111 | 101.4 | 106.3 | 106 | 114.6 | 119.5 | – | 105.5 | 101.9 | 117.5 | Activity (NCI-H522): 90.78%
4 | N#Cc1ccc(/C=C/c2ccc(NC(=O)c3ccccc3NC(=O)c3ccco3)cc2)cc1 | 80 | 100 | 116 | 103 | 99 | 100 | 106 | 109 | 115 | 109 | 109 | 109 | 101 | 111 | 107 | 102 | 124 | 104 | 106 | 108 | Activity (NCI-H522): 106%
5 | O=C(Nc1ccccc1C(=O)Nc1ccc(/C=C/c2ccc(Cl)cc2)cc1)c1ccco1 | 71.39 | 107 | 136 | 112 | 101 | 101 | 100 | 104 | 103 | 115 | 127 | 109 | 102 | 104 | 105 | 110 | 128 | 109 | 106 | 120 | Activity (NCI-H522): 114%
6 | COc1cc(/C=C/c2ccc(NC(=O)c3ccccc3NC(=O)c3ccccc3)cc2)ccc1O | 85.88 | 103 | 104 | 104 | 98.83 | – | 105 | 117 | 95.86 | 94.13 | 95.53 | 106.41 | 99.78 | 94.69 | 95.46 | 91.92 | 115 | 98.82 | 109 | 79.36 | Activity (NCI-H522): 99.45%
7 | O=C(Nc1ccccc1C(=O)Nc1ccc(/C=C/C=C/c2ccccc2)cc1)c1ccccc1 | 82.74 | 95.87 | 96.46 | 103 | 84.87 | – | 104 | 112 | 84.31 | 75.75 | 86.19 | 70.89 | 91.49 | 93.96 | 84.69 | 81.13 | 121 | 73.53 | 107 | 63.43 | Activity (NCI-H522): 70.1%
8 | N#Cc1ccc(/C=C/c2nc3ccccc3nc2SCc2nc3ccccc3[nH]2)cc1 | – | 107 | – | 113 | 100 | – | 103 | 103 | 90.69 | 103 | – | 97.73 | 93.12 | 99.49 | 95.59 | 120 | 105 | 114 | 98.13 | 102 | –
9 | Oc1ccc(/C=C/c2nc3ccccc3nc2SCc2nc3ccccc3[nH]2)cc1 | 93.68 | 95.56 | – | 117 | 96.99 | 107 | 100 | 100 | 94.31 | 96.98 | – | 99.18 | 85.66 | 101 | 99.33 | – | 119 | 96.67 | 95.64 | 85.51 | –
10 | CN(C)c1ccc(/C=C/c2nc3ccccc3nc2SCc2nc3ccccc3[nH]2)cc1 | – | 102 | – | 102 | 84.34 | – | 108 | 106 | 90.32 | 119 | – | 79.22 | 97.05 | 100 | 105 | 97.59 | 110 | 93.83 | 102 | 100 | –
11 | C(=C\c1nc2ccccc2nc1SCc1nc2ccccc2[nH]1)/c1ccccc1 | – | 79.81 | – | 67.72 | 61.37 | 2.71 | 82.17 | 53.22 | 76.68 | – | – | 83.8 | 64.03 | 88.3 | 65.68 | 86.4 | 75.7 | 96.13 | 83.03 | 47.73 | –
12 | COc1ccc(OC)c(/C=C/c2nc3ccccc3nc2SCc2nc3ccccc3[nH]2)c1 | – | 104 | – | 111 | 80.62 | – | 92.09 | 95.82 | 90.52 | 113 | – | 81.4 | 90.64 | 87.33 | 87.18 | 94.87 | 104 | 103 | 96.03 | 77.53 | –
13 | Oc1ccccc1/C=C/c1nc2ccccc2nc1SCc1nc2ccccc2[nH]1 | – | 83.34 | – | 81.1 | 58.04 | 25.22 | 75.12 | 82.43 | 89.92 | 63.9 | – | 44.46 | 77.16 | 73.71 | 79.35 | 80.01 | 96.37 | 74.29 | 93.22 | 63.38 | –

— ChEMBL document CHEMBL1781959, “Synthesis and in vitro antitumor activity of substituted quinazoline and quinoxaline derivatives: search for anticancer agent” (Eur J Med Chem, 2011)
